Source: ChEMBL document CHEMBL1201862, “PubChem BioAssay data set” (2004)
Calls of active or inactive are those of the source.

What was measured:
[1] = target: Microphthalmia-associated transcription factor (Homo sapiens, UniProt O75030); assay: TRPM1 promoter luciferase signal decrease, dose response, MITF inhibitor project, cell-based, SK-MEL-5, cherry-picked, set 3 (AID 493073); type: functional
[2] = tested on: Vero; assay: cells; type: functional; details: Chlorocebus sabaeus
[3] = target: G-protein coupled receptor 35 (Homo sapiens, UniProt Q9HC97); assay: SAR Analysis for the identification of Selective Antagonists of ERK1/2 Activity in GPR35-Overexpressing U2OS Cells. [Related pubchem assays: 2079, 2058 ]; type: functional, cell-based
[4] = target: Paired box protein Pax-8 (Homo sapiens, UniProt Q06710); assay: inhibitors of PAX8-driven TPO luciferase reporter, dose response, RMG-I cells, cherry-pick (AID 687027); type: functional, cell-based;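 also: luciferase reporter driven by Pax8 target thyroperoxidase promoter measured by SteadyGlo luminescence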
[5] = target: Melanocortin receptor 4 (Homo sapiens, UniProt P32245); type: functional, cell-based;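 also: Cell-based assay with luminescence read-out, confirmatory dose-response testing for agonist activity of biased ligands at MC4R; human U2OS cells with tagged receptor and beta-arrestin; potency of agonists that increase receptor coupling to beta-arrestin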
[6] = non-specific cell cytotoxicity, dose response, cytotoxicity control for PAX8 inhibitor project, plate reader, dry powder samples (AID 743021); type: functional, cell-based
[7] = target: G-protein coupled receptor 55 (Homo sapiens, UniProt Q9Y2T6); assay: GPR55 antagonists, SAR follow-up, counter-screen for GPR35 antagonist project, imaging, image-based (AID 2397); type: functional
[8] = target: T1, Tyrosine-protein phosphatase non-receptor type 22 (Homo sapiens, UniProt Q9Y2R2); type: functional
T1 sequence (Q9Y2R2 whole entry): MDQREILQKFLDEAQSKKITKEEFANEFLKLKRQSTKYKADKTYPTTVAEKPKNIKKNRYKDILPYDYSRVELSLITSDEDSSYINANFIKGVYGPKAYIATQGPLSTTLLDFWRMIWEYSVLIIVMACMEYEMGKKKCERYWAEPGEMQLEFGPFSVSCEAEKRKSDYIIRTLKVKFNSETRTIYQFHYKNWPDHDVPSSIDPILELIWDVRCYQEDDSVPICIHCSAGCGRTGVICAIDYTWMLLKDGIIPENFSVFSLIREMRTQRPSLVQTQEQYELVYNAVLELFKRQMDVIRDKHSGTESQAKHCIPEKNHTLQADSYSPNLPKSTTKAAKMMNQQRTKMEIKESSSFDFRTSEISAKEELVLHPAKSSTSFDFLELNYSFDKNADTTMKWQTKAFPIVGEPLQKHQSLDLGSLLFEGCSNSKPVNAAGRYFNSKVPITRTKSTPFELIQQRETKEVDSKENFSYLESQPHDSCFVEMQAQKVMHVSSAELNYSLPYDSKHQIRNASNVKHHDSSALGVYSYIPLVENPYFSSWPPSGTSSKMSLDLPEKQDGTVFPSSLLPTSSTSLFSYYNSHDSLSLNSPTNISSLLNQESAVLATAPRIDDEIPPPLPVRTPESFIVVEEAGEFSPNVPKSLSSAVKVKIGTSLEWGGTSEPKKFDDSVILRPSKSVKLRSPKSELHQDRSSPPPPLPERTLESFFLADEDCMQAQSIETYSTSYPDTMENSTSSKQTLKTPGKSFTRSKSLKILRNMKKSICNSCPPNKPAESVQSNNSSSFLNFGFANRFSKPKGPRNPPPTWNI

[9] = target: Dual specificity protein phosphatase 3 (Homo sapiens, UniProt P51452); assay: VHR phosphatase inhibition, dose response, selectivity assay for STEP inhibitor project, biochemical (AID 602374); type: functional; details: read-out: IC50_Mean
[10] = target: T2, Carboxy-terminal domain RNA polymerase II polypeptide A small phosphatase 1 (Homo sapiens, UniProt Q9GZU7); assay: inhibitors of CTDSP1, concentration-response testing, biochemical assay, absorbance-based, actives from ultra-high-throughput screening (AID 540297); type: functional
T2 sequence (Q9GZU7 whole entry): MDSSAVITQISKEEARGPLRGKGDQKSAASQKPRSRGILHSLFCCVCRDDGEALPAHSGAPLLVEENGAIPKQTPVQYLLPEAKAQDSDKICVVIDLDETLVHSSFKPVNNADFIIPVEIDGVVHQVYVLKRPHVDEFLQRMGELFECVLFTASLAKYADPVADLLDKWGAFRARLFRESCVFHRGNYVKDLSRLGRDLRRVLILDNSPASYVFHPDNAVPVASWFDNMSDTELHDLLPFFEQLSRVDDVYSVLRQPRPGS

[11] = target: T1, Tyrosine-protein phosphatase non-receptor type 22; type: functional; remark: listed apart in the source
[12] = target: T3, Low molecular weight phosphotyrosine protein phosphatase (Homo sapiens, UniProt P24666); type: functional; details: read-out: IC50_Mean
T3 sequence (P24666 whole entry): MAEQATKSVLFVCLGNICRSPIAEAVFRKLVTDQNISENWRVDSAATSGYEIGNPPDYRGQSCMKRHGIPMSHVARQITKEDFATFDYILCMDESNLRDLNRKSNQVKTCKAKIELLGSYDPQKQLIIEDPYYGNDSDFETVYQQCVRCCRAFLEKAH

[13] = target: T4, Tyrosine-protein phosphatase non-receptor type 7 (Homo sapiens, UniProt P35236); type: functional
T4 sequence (P35236 whole entry): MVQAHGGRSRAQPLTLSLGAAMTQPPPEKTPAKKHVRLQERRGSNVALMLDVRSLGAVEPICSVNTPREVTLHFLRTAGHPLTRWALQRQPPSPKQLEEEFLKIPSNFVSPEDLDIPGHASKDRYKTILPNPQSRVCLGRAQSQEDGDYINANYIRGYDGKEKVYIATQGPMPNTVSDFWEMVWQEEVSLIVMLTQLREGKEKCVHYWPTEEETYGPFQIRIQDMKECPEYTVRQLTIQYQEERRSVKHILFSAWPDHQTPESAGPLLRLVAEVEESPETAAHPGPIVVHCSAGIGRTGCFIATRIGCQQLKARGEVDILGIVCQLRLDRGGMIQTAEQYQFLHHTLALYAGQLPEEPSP

[14] = target: T5, Tyrosine-protein phosphatase non-receptor type 11 (Homo sapiens, UniProt Q06124); assay: SHP2 phosphatase inhibition, dose response, selectivity assay for STEP inhibitor project, biochemical (AID 602367); type: functional; details: read-out: IC50_Mean
T5 sequence (Q06124 whole entry): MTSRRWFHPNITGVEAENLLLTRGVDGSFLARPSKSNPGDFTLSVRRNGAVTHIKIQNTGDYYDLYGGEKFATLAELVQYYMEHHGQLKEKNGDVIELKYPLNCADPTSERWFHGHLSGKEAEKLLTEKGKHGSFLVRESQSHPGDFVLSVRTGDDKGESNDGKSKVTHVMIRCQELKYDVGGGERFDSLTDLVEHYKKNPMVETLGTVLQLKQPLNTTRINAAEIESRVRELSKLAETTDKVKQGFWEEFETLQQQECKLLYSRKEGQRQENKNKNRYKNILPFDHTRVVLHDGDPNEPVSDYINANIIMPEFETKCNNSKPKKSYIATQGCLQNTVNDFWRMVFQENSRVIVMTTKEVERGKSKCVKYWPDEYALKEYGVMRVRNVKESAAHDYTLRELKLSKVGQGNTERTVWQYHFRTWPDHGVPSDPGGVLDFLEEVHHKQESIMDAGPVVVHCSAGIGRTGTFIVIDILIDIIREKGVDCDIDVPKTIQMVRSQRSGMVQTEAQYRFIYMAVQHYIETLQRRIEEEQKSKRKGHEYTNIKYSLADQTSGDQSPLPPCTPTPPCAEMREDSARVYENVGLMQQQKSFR

[15] = target: T1, Tyrosine-protein phosphatase non-receptor type 22; assay: LYP phosphatase inhibition for selectivity, dose response, selectivity assay for LMPTP inhibitor project, biochemical, fluorescence, LYP catalytic domain (AID 652006); type: functional; details: read-out: IC50_Mean
[16] = target: T6, Tyrosine-protein phosphatase non-receptor type 5 (Homo sapiens, UniProt P54829); assay: STEP phosphatase inhibitors, confirmation, biochemical, fluorescence intensity, uHTS hits (AID 602372); type: functional; details: read-out: IC50_Mean
T6 sequence (P54829 whole entry): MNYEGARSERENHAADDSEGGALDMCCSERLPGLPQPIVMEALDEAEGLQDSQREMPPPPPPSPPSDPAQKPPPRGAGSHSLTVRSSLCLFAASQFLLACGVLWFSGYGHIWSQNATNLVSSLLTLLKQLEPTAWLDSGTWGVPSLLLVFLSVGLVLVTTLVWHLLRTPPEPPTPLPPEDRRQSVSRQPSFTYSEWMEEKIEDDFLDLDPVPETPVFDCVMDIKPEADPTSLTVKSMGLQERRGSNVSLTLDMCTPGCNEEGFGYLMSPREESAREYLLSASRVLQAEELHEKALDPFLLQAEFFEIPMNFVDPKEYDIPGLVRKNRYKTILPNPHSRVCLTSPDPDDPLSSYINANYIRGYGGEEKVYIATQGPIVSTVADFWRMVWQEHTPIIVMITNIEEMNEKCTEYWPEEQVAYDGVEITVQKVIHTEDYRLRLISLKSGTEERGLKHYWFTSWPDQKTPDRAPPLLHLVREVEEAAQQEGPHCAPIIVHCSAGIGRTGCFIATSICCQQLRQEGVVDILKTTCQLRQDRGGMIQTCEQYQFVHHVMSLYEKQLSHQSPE

[17] = target: T3, Low molecular weight phosphotyrosine protein phosphatase; type: functional; details: read-out: IC50_Mean; remark: listed apart in the source
[18] = target: T1, Tyrosine-protein phosphatase non-receptor type 22; assay: PTPN22 phosphatase inhibition, dose response, selectivity assay for STEP inhibitor project, biochemical (AID 624241); type: functional
[19] = target: T7, Kappa-type opioid receptor (Homo sapiens, UniProt P41145); assay: SAR analysis of small molecule agonists of the kappa opioid receptor via a luminescent beta-arrestin assay - Set 3. [Related pubchem assays (depositor defined):AID1777, AID1785, AID1786, AID1966, AID2133, AID2136, AID2284, AID2500]; type: functional
[20] = target: T7, Kappa-type opioid receptor; type: functional
[21] = target: T7, Kappa-type opioid receptor; type: functional; remark: listed apart in the source
[22] = target: Beta-galactosidase (Escherichia coli, UniProt Q8VNN2); type: functional
[23] = target: T8, Delta-type opioid receptor (Homo sapiens, UniProt P41143); assay: HTS Image-Based Screen for Agonists of the DOR Receptor. [Related pubchem assays (depositor defined):AID1777, AID1786, AID2133]; type: functional
[24] = target: T9, Mu-type opioid receptor (Homo sapiens, UniProt P35372); assay: HTS Image-Based Screen for Agonists of the MOR Receptor. [Related pubchem assays (depositor defined):AID1777, AID1785, AID1786, AID2133]; type: functional
[25] = target: T8, Delta-type opioid receptor; assay: HTS Image-Based Screen for Antagonists of the DOR Receptor. [Related pubchem assays (depositor defined):AID1777, AID1785, AID1786, AID2133]; type: functional
[26] = target: T9, Mu-type opioid receptor; assay: MOR agonists by imaging, SAR follow-up, image-based (AID 2352); type: functional
[27] = target: T8, Delta-type opioid receptor; assay: DOR antagonists, SAR follow-up, image-based (AID 2357); type: functional
[28] = target: T9, Mu-type opioid receptor; assay: MOR antagonists, SAR follow-up, image-based (AID 2420); type: functional;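 also: compounds added before stimulation of receptor with agonist DAMGO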
[29] = target: T8, Delta-type opioid receptor; assay: DOR agonists, SAR follow-up, image-based (AID 2370); type: functional
[30] = target: T7, Kappa-type opioid receptor; assay: KOR agonist analogs, imaging readout, SAR follow-up, image-based (AID 2359); type: functional
[31] = target: T7, Kappa-type opioid receptor; assay: KOR antagonists by imaging, SAR follow-up, image-based (AID 2348); type: functional
[32] = target: T7, Kappa-type opioid receptor; assay: SAR analysis of small molecule agonists of the kappa opioid receptor via a luminescent beta-arrestin assay. [Related pubchem assays (depositor defined):AID1777, AID1786, AID1966, AID2133, AID2136, AID2348, AID2352, AID2357, AID2359, AID2370, AID2420, AID2478, AID2491, AID2492, AID2493, AID2497, AID2498, AID2500, AID449737, AID488822, AID488842]; type: functional

T8 sequence (P41143 whole entry): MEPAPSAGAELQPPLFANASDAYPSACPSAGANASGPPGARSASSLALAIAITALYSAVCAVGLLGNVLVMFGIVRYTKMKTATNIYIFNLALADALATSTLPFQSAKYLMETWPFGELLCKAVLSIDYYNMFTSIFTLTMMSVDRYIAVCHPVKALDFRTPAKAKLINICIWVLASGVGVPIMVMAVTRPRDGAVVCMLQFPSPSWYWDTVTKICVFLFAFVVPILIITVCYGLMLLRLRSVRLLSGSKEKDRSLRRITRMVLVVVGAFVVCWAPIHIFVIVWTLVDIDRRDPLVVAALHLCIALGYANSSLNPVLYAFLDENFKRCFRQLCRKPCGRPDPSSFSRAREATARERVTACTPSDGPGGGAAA
T7 sequence (P41145 whole entry): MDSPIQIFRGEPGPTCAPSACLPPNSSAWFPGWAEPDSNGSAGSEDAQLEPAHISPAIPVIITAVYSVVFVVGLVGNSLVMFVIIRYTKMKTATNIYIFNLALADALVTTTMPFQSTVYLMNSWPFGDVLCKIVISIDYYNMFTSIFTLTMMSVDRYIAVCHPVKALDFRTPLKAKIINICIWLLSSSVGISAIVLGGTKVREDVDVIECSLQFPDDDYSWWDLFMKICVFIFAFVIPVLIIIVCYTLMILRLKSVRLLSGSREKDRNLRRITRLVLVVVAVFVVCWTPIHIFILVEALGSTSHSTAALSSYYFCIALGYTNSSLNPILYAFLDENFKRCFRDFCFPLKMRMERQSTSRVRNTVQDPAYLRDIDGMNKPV
T9 sequence (P35372 whole entry): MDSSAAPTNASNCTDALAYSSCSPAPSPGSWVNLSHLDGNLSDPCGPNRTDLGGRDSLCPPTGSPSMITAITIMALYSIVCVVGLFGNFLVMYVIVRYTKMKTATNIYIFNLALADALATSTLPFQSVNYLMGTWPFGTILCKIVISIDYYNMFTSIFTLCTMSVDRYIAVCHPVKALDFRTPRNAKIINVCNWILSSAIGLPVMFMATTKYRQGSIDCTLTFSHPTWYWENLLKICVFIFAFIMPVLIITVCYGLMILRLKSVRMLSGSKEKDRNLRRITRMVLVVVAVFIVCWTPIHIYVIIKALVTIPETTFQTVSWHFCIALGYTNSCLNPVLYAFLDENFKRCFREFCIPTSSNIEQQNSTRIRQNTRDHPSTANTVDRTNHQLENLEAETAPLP
Chain of Microphthalmia-associated transcription factor (O75030 whole entry): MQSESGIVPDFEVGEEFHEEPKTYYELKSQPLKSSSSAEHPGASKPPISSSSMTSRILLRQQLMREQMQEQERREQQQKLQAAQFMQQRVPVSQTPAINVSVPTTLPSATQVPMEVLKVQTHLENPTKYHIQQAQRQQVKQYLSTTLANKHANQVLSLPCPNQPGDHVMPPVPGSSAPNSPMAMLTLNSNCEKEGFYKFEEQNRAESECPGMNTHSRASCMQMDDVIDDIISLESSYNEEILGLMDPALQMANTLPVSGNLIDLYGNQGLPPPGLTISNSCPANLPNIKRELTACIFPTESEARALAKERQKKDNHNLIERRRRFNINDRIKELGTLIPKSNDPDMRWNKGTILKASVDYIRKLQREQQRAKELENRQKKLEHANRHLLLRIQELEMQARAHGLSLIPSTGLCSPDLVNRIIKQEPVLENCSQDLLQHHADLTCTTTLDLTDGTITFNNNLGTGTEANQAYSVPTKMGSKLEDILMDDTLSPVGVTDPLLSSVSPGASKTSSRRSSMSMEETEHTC
Chain of Melanocortin receptor 4 (P32245 whole entry): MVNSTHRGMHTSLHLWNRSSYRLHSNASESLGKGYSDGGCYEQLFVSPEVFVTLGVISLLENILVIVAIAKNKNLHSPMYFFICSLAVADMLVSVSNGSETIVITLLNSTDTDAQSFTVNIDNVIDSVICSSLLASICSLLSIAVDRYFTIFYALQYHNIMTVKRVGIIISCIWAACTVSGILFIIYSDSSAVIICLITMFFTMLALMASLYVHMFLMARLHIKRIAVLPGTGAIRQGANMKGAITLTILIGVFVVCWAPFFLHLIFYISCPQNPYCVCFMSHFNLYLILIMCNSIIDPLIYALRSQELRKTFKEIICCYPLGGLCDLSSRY
Chain of Beta-galactosidase (Q8VNN2 whole entry): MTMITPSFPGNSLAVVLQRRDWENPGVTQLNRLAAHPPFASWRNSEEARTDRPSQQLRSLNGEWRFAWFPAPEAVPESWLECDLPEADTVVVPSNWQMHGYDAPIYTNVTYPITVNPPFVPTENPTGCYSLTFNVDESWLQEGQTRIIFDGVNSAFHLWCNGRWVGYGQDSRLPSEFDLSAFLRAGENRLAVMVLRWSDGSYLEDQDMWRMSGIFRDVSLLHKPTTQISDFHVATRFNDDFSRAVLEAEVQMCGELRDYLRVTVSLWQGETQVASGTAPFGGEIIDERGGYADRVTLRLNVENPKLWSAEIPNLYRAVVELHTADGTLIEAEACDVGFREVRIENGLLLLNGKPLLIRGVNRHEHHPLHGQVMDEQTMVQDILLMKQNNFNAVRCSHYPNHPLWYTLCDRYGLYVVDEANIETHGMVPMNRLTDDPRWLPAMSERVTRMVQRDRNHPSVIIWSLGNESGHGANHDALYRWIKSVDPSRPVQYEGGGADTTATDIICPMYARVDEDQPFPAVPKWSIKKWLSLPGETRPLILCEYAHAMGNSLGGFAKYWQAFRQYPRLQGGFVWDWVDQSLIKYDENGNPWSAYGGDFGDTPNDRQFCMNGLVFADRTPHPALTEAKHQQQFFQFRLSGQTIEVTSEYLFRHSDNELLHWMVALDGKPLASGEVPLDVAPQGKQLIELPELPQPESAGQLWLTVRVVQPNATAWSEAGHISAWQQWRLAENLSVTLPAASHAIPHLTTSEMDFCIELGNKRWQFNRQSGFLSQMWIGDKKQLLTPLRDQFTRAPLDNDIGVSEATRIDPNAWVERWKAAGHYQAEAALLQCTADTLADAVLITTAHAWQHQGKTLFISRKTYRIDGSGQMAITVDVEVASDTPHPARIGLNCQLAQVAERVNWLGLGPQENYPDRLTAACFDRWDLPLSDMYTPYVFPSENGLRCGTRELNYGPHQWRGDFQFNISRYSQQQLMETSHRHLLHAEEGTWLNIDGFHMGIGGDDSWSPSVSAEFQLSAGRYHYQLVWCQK
Chain of Paired box protein Pax-8 (Q06710 whole entry): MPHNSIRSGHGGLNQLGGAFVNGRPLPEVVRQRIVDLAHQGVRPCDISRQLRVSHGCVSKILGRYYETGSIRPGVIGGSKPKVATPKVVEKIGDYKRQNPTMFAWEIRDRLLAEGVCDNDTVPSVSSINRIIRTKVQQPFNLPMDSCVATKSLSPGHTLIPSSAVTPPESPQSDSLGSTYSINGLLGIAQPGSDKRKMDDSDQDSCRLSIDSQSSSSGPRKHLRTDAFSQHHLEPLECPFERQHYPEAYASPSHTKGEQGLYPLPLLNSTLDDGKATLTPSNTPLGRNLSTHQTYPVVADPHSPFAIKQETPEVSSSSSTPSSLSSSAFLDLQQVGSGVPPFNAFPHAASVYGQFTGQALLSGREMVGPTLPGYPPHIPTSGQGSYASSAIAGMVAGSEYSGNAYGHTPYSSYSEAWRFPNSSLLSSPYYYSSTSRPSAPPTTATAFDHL
Chain of G-protein coupled receptor 35 (Q9HC97 whole entry): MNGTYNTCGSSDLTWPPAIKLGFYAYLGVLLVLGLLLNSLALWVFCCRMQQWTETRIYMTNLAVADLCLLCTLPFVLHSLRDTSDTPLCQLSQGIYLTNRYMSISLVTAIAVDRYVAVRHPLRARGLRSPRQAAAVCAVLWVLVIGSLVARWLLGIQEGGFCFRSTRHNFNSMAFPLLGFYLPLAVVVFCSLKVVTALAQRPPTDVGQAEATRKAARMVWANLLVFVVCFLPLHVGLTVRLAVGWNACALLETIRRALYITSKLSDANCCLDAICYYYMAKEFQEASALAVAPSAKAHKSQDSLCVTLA
Chain of G-protein coupled receptor 55 (Q9Y2T6 whole entry): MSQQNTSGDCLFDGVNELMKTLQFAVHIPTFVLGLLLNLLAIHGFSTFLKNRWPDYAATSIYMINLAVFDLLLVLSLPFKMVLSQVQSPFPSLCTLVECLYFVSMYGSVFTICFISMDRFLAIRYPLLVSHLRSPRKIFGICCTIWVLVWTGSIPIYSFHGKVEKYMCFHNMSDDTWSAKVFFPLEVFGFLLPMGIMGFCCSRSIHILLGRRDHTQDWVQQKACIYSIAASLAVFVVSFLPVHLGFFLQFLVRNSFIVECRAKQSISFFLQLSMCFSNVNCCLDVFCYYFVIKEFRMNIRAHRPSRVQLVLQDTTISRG
Chain of Dual specificity protein phosphatase 3 (P51452 whole entry, the tested form may be a part): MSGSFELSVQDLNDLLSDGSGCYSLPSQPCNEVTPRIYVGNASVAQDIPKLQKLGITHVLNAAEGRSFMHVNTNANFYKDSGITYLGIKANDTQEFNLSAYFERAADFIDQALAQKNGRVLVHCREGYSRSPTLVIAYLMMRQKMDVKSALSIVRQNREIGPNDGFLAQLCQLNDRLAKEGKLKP

CC(C)N=C(NS(=O)(=O)c1ccccc1)C(Cl)(Cl)Cl
AC50 [1]: 6.76 µM (active)
CC50 [2]: 11.5 µM (active)

Clc1ccc(Cn2ncc3c(N4CCN(c5ccccc5)CC4)ncnc32)cc1
IC50 [3]: > 32 µM (not active)
AC50 [4]: 8.65 µM (active)
EC50 [5]: > 89.1 µM (inactive)
AC50 [6]: 33.9 µM (active)
IC50 [7]: 29.3 µM (inactive)

O=C(COc1ccc(/C=N/NC(=O)c2ccc(O)cc2)cc1)Nc1cccc([N+](=O)[O-])c1
IC50 [8]: 37.6 µM (active)
IC50 [9]: 3.06 µM (active)
IC50 [10]: 2.98 µM (active)
IC50 [11]: 64.7 µM (active)
IC50 [12]: 15.8 µM (active)
IC50 [13]: 49.1 µM (active)
IC50 [14]: 2.41 µM (active)
IC50 [15]: 11.6 µM (active)
IC50 [16]: 8.06 µM (active)
IC50 [17]: 11.2 µM (active)
IC50 [18]: 48.9 µM (inactive)

COc1ccc(Cn2c(SCc3ccc(Cl)c(Cl)c3)nnc2-c2ccccn2)cc1
EC50 [19]: 17.4 µM (inactive)

COc1cc(OC)cc(-c2nnc(NC(=O)c3ccc4c(c3)OCCO4)o2)c1
IC50 [20]: 13.3 µM (active)
IC50 [21]: > 32 µM
EC50 [22]: > 31.5 µM (inactive)
EC50 [23]: > 32 µM (inactive)
EC50 [24]: > 32 µM (inactive)
IC50 [25]: > 32 µM (inactive)

COc1ccc(C(=O)CSc2nnc(-c3ccccn3)n2Cc2ccco2)cc1
EC50 [26]: > 32 µM (inactive)
IC50 [27]: > 32 µM (inactive)
IC50 [28]: > 32 µM (inactive)
EC50 [29]: > 32 µM (inactive)
EC50 [30]: > 32 µM (inactive)
IC50 [31]: > 32 µM (inactive)
EC50 [32]: > 10 µM (inactive)
